Assay results as given in ChEMBL document CHEMBL5120927, “LEGO-Lipophosphonoxins: A Novel Approach in Designing Membrane Targeting Antimicrobials” (J Med Chem, 2022).

How the values were obtained:
[1] = Gradient chromatographic hydrophobicity index of the compound at pH 3.7 by HPLC analysis; type: ADME
Staphylococcus aureus [2] = test: Antibacterial activity against Staphylococcus aureus ATCC 29213 = CCM 4223 assessed as inhibition of bacterial growth incubated for 24 hrs by microdilution assay; type: functional
Pseudomonas aeruginosa [3] = test: Antibacterial activity against multidrug-resistant Pseudomonas aeruginosa assessed as reduction in microbial growth incubated for 24 hrs by microdilution assay; type: functional
Pseudomonas aeruginosa [4] = test: Antibacterial activity against Pseudomonas aeruginosa ATCC 27853 = CCM 3955 assessed as inhibition of bacterial growth incubated for 24 hrs by microdilution assay; type: functional
[5] = system: Staphylococcus epidermidis; test: Antibacterial activity against Staphylococcus epidermidis CCM 7221 assessed as inhibition of bacterial growth incubated for 24 hrs by microdilution assay; type: functional
Escherichia coli [6] = test: Antibacterial activity against Escherichia coli ATCC 25922 = CCM 3954 assessed as inhibition of bacterial growth incubated for 24 hrs by microdilution assay; type: functional
Enterococcus faecium = test: Antibacterial activity against vancomycin resistant Enterococcus faecium 419/ANA assessed as reduction in microbial growth incubated for 24 hrs by microdilution assay; type: functional
Enterococcus faecalis = test: Antibacterial activity against Enterococcus faecalis ATCC 29212 = CCM 4224 assessed as inhibition of bacterial growth incubated for 24 hrs by microdilution assay; type: functional
Staphylococcus aureus [7] = test: Antibacterial activity against methicillin resistant Staphylococcus aureus 4591/A assessed as reduction in microbial growth incubated for 24 hrs by microdilution assay; type: functional
Escherichia coli [8] = test: Antibacterial activity against Escherichia coli ATCC 25922 = CCM 3954 assessed as inhibition of bacterial growth incubated for 24 hrs in presence of BSA by microdilution assay; type: functional
Staphylococcus aureus [9] = test: Antibacterial activity against Staphylococcus aureus ATCC 29213 = CCM 4223 assessed as inhibition of bacterial growth incubated for 24 hrs in presence of BSA by microdilution assay; type: functional
[10] = Hemolytic activity in human RBC assessed as haemoglobin release measured after 3 hr; type: toxicity, cell-based, Erythrocyte; conditions: red blood cells (erythrocytes)
Escherichia coli [11] = test: Antibacterial activity against multidrug-resistant Escherichia coli CE5556 expressing CTX-M-15 assessed as reduction in microbial growth incubated for 24 hrs by microdilution assay; type: functional

| SMILES | CHI [1] | MIC (Staphylococcus aureus [2]) | MIC (Pseudomonas aeruginosa [3]) | MIC (Pseudomonas aeruginosa [4]) | MIC [5] | MIC (Escherichia coli [6]) | MIC (Enterococcus faecium) | MIC (Enterococcus faecalis) | MIC (Staphylococcus aureus [7]) | MIC (Escherichia coli [8]) | MIC (Staphylococcus aureus [9]) | HC50 at 3 h [10] | MIC (Escherichia coli [11]) |
| --- | --- | --- | --- | --- | --- | --- | --- | --- | --- | --- | --- | --- | --- |
| CCCCCOP(=O)(CCN(CCCN)CCCN)OCCCCCCCCCCOP(=O)(CCN(CCCN)CCCN)OCCCCC.Cl.Cl.Cl.Cl.Cl.Cl (stereo unspecified) | 31.3 | 2 µg/mL | 8 µg/mL | 16 µg/mL | 1 µg/mL | 2 µg/mL | 128 µg/mL | 32 µg/mL | 2 µg/mL | > 128 µg/mL | 8 µg/mL | 159 µg/mL | 128 µg/mL |
| Cl.Cl.Cl.Cl.Cl.Cl.NCCCN(CCCN)CCP(=O)(OCCCCCCCOP(=O)(CCN(CCCN)CCCN)OCCCC(F)(F)F)OCCCC(F)(F)F (stereo unspecified) | 24.6 | > 128 µg/mL | > 128 µg/mL | > 128 µg/mL | 128 µg/mL | 128 µg/mL | > 128 µg/mL | > 128 µg/mL | > 128 µg/mL | > 128 µg/mL | > 128 µg/mL | > 200 µg/mL | > 128 µg/mL |
| CCCCCCOP(=O)(CCN(CCCN)CCCN)OCCCCCCOP(=O)(CCN(CCCN)CCCN)OCCCCCC.Cl.Cl.Cl.Cl.Cl.Cl (stereo unspecified) | 28.7 | 8 µg/mL | > 128 µg/mL | > 128 µg/mL | 4 µg/mL | 32 µg/mL | > 128 µg/mL | > 128 µg/mL | 16 µg/mL | 64 µg/mL | 16 µg/mL | 634 µg/mL | 128 µg/mL |
| Cl.Cl.Cl.Cl.Cl.Cl.NCCCN(CCCN)CCP(=O)(OCCCCCCCCCCOP(=O)(CCN(CCCN)CCCN)OCCc1ccccc1)OCCc1ccccc1 (stereo unspecified) | 31.1 | 2 µg/mL | 64 µg/mL | 64 µg/mL | 1 µg/mL | 16 µg/mL | 128 µg/mL | 32 µg/mL | 2 µg/mL | 32 µg/mL | 4 µg/mL | > 500 µg/mL | 64 µg/mL |
| CC/C=C\CCCOP(=O)(CCN(CCCN)CCCN)OCCCCCCOP(=O)(CCN(CCCN)CCCN)OCCC/C=C\CC.Cl.Cl.Cl.Cl.Cl.Cl (stereo unspecified) | 2.4 | 8 µg/mL | > 128 µg/mL | > 128 µg/mL | 4 µg/mL | 64 µg/mL | > 128 µg/mL | 128 µg/mL | 16 µg/mL | 128 µg/mL | 16 µg/mL | > 200 µg/mL | 64 µg/mL |
| CCCCCOP(=O)(CCN(CCCN)CCCN)OCCCCCCCCCCCCOP(=O)(CCN(CCCN)CCCN)OCCCCC.Cl.Cl.Cl.Cl.Cl.Cl (stereo unspecified) | 34.7 | – | 4 µg/mL | 4 µg/mL | 0.5 µg/mL | 16 µg/mL | 16 µg/mL | 2 µg/mL | 1 µg/mL | 16 µg/mL | 8 µg/mL | 444 µg/mL | 32 µg/mL |
| Cl.Cl.Cl.Cl.Cl.Cl.N=C(N)NCCCN(CCCNC(=N)N)CCP(=O)(OCCCCCCCOP(=O)(CCN(CCCNC(=N)N)CCCNC(=N)N)OCCCC(F)(F)F)OCCCC(F)(F)F (stereo unspecified) | 25.2 | 8 µg/mL | > 128 µg/mL | > 128 µg/mL | 8 µg/mL | 1 µg/mL | > 128 µg/mL | > 128 µg/mL | 8 µg/mL | 128 µg/mL | 16 µg/mL | > 200 µg/mL | 128 µg/mL |
| Cl.Cl.Cl.Cl.Cl.Cl.NCCN(CCN)CCP(=O)(OCCCCCCOP(=O)(CCN(CCN)CCN)OCCc1ccccc1)OCCc1ccccc1 (stereo unspecified) | 30.9 | 32 µg/mL | > 128 µg/mL | > 128 µg/mL | 16 µg/mL | > 128 µg/mL | > 128 µg/mL | > 128 µg/mL | 64 µg/mL | > 128 µg/mL | 128 µg/mL | > 200 µg/mL | > 128 µg/mL |
| CCC/C=C\CCOP(=O)(CCN(CCCN)CCCN)OCCCCCCCOP(=O)(CCN(CCCN)CCCN)OCC/C=C\CCC.Cl.Cl.Cl.Cl.Cl.Cl (stereo unspecified) | 31.3 | 4 µg/mL | 128 µg/mL | 128 µg/mL | 2 µg/mL | 4 µg/mL | 128 µg/mL | 64 µg/mL | 4 µg/mL | 64 µg/mL | 8 µg/mL | > 200 µg/mL | 16 µg/mL |
| CCCCCCCCCCOP(=O)(CCN(CCCN)CCCN)OCCCCCCCCCCOP(=O)(CCN(CCCN)CCCN)OCCCCCCCCCC.Cl.Cl.Cl.Cl.Cl.Cl (stereo unspecified) | 46.9 | 2 µg/mL | 4 µg/mL | 4 µg/mL | 1 µg/mL | > 2 µg/mL | 2 µg/mL | 2 µg/mL | 1 µg/mL | 16 µg/mL | 1 µg/mL | 5.2 µg/mL | 2 µg/mL |
| CCCCCCCCCCOP(=O)(CCN(CCCN)CCCN)OCCCCCCOP(=O)(CCN(CCCN)CCCN)OCCCCCCCCCC.Cl.Cl.Cl.Cl.Cl.Cl (stereo unspecified) | 44 | 1 µg/mL | 2 µg/mL | 1 µg/mL | 0.5 µg/mL | 1 µg/mL | 1 µg/mL | 1 µg/mL | 0.5 µg/mL | 1 µg/mL | 0.2 µg/mL | 16 µg/mL | 1 µg/mL |
| CCCCC/C=C\CCCOP(=O)(CCN(CCCN)CCCN)OCCCOP(=O)(CCN(CCCN)CCCN)OCCC/C=C\CCCCC.Cl.Cl.Cl.Cl.Cl.Cl (stereo unspecified) | 39.8 | 1 µg/mL | 2 µg/mL | 2 µg/mL | 1 µg/mL | 1 µg/mL | 8 µg/mL | 2 µg/mL | 1 µg/mL | 2 µg/mL | 2 µg/mL | 271 µg/mL | 1 µg/mL |
| CCCC/C=C\CCOP(=O)(CCN(CCN)CCN)OCCCCCCOP(=O)(CCN(CCN)CCN)OCC/C=C\CCCC.Cl.Cl.Cl.Cl.Cl.Cl (stereo unspecified) | 40.1 | 1 µg/mL | 8 µg/mL | 16 µg/mL | 0.5 µg/mL | 1 µg/mL | 32 µg/mL | 4 µg/mL | 1 µg/mL | 2 µg/mL | 2 µg/mL | 254 µg/mL | 2 µg/mL |
| CC(C)COP(=O)(CCN(CCCN)CCCN)OCCCCCCCCCCCCCCOP(=O)(CCN(CCCN)CCCN)OCC(C)C.Cl.Cl.Cl.Cl.Cl.Cl (stereo unspecified) | 27.3 | – | – | 4 µg/mL | 0.5 µg/mL | 16 µg/mL | 16 µg/mL | 4 µg/mL | 4 µg/mL | – | – | – | 16 µg/mL |
